Experimental data taken from BigSolDB 2.1.

O=S(=O)([O-])NC1CCCCC1.[Na+]
Settings | solubility (mole fraction)
in DMF, 283.15 K | 3.1e-05
in DMF, 288.14 K | 0.000121
in DMF, 293.17 K | 0.000214
in DMF, 298.15 K | 0.000364
in DMF, 303.13 K | 0.00051
in DMF, 308.15 K | 0.000724
in DMF, 313.14 K | 0.00095
in DMF, 318.13 K | 0.00119
in DMF, 323.17 K | 0.00141
in DMSO, 293.13 K | 0.000997
in DMSO, 298.15 K | 0.00226
in DMSO, 303.14 K | 0.00433
in DMSO, 308.15 K | 0.00792
in DMSO, 313.16 K | 0.0117
in DMSO, 318.15 K | 0.0154
in DMSO, 323.2 K | 0.0183
in DMSO, 328.15 K | 0.0198
in DMSO, 333.17 K | 0.0203
in acetic acid, 293.15 K | 0.0037
in acetic acid, 298.14 K | 0.00501
in acetic acid, 303.15 K | 0.00649
in acetic acid, 308.17 K | 0.00753
in acetic acid, 313.15 K | 0.00877
in acetic acid, 318.13 K | 0.0103
in acetic acid, 323.15 K | 0.0115
in acetic acid, 328.17 K | 0.0128
in acetic acid, 333.2 K | 0.0134
in formamide, 283.13 K | 0.0319
in formamide, 288.15 K | 0.0391
in formamide, 293.16 K | 0.0438
in formamide, 298.17 K | 0.0472
in formamide, 303.15 K | 0.0506
in formamide, 308.14 K | 0.0526
in formamide, 313.15 K | 0.0543
in formamide, 318.12 K | 0.0554
in formamide, 323.15 K | 0.0567
in formic acid, 283.13 K | 0.016
in formic acid, 288.13 K | 0.0179
in formic acid, 293.1 K | 0.0209
in formic acid, 299.12 K | 0.0239
in formic acid, 303.15 K | 0.0275
in formic acid, 308.17 K | 0.0319
in formic acid, 313.13 K | 0.037
in formic acid, 318.2 K | 0.0424
in formic acid, 323.15 K | 0.0487
in methanol, 283.1 K | 0.00271
in methanol, 288.15 K | 0.00295
in methanol, 293.24 K | 0.00314
in methanol, 298.1 K | 0.00331
in methanol, 303.15 K | 0.00352
in methanol, 308.2 K | 0.00376
in methanol, 313.19 K | 0.00405
in methanol, 318.2 K | 0.00436
in methanol, 323.15 K | 0.00467
in water, 283.13 K | 0.0152
in water, 288.17 K | 0.0166
in water, 293.15 K | 0.018
in water, 298.14 K | 0.02
in water, 303.17 K | 0.0233
in water, 308.13 K | 0.0284
in water, 313.15 K | 0.0363
in water, 318.14 K | 0.0461
in water, 323.15 K | 0.0512
